# Where two headings read alike, the source gives them in different places.
# How the values were obtained:
# [1] = biological target: T1, C. difficile Glutamate 2,3-aminomutase (Clostridioides difficile, UniProt Q185C5, V264I); assay type: biochemical, Clostridium difficile; settings: for rate of reaction to the other isomer: 20 mM substrate; for Specific Activity: substrate 20 mM
# T1 construct: made in house; host or cells: E. coli BL21(DE3) CodonPlus RILP, pET23a(+)
# Procedure: Glutamate 2,3-aminomutase Activity Measurements. Enzyme assays were conducted in an anaerobic chamber (Coy, Grass Lake, Mich.) at 37° C. […] At various time intervals (0-3 min), 45 μl of reaction mix was added to 15 μl of 2N perchloric acid to stop the reaction. Samples were centrifuged at 14,000×g for 10 min. The supernatant fluids were treated with PITC according to the method of Heinrikson and Meredith (20). Samples were dissolved in 100 μl of coupling buffer, concentrated to dryness by vacuum centrifugation, redissolved in 400 μl coupling buffer plus 20 μl of PITC, allowed to react for 30 min at room temperature, concentrated to dryness as above, and dissolved in either 0.5 or 1.0 ml water prior to injection (50 or 100 μl). The PITC derivative of L-glutamate was separated from the β-glutamate derivative by HPLC chromatography (20) using a C18 reverse phase column (Phenomenex Gemini 5μ, 4.6 mm×25 cm, #G-4435-E0), flow rate 1 ml/min, room temperature. The PITC-amino acids were separated with a linear gradient composed of 0.05 M ammonium acetate in water (buffer A) and 0.1 M ammonium acetate in 44% water, 46% acetonitrile, and 10% methanol (buffer B). The gradient established was 0-10% Buffer B in 20 min, 10-100% Buffer B in 10 min. […] Concentrations of L-glutamate or β-glutamate were measured using an amino acid standard solution (Pierce Chemical Co., #20088). For enzyme activity measurements at selected time points, the peak area of either L-glutamate or β-glutamate was divided by the total peak area (L-glutamate+β-glutamate) and multiplied by the starting concentration of either L-glutamate or β-glutamate to obtain molar concentrations. Enzyme kinetic parameters were determined by varying the concentration of L-glutamate (0.6-20 mM). Two separate analyses were conducted at two concentrations of enzyme (0.75 and 0.15 μM—subunit) with remaining conditions as stated above. Initial velocities were measured and used to calculate kinetic parameters (Vmax and Km) by the nonlinear least squares curve fitting method of Cleland (25).
# [2] = biological target: T1, C. difficile Glutamate 2,3-aminomutase; assay type: biochemical, Clostridium difficile; settings: for Keq: 24° C.
# Procedure: Measurement of the Equilibrium Constant for Conversion of L-Glutamate into β-Glutamate Catalyzed by Glutamate 2,3-aminomutase. Assays were conducted as previously described (see activity measurements above) except at 24° C. […] Initial enzyme concentrations were either 0.75 μM or 0.15 μM. After approximately 4 hours at 24° C., an additional aliquot of enzyme was added to make the final enzyme concentration either 1.5 μM or 0.3 μM, and the reaction was allowed to proceed for an additional 16 hours at 24° C. The reaction was stopped with 0.55 N perchloric acid, and the amino acids were derivatized with PITC as previously described. Following HPLC separation of the PITC derivatized L-glutamate and β-glutamate, the simple ratio of the peak areas of the two compounds was calculated based on the equivalent extinction coefficient of the two compounds (20).
smiles,measurement,setting,value
"NCCCC[C@H](N)C(=O)O [L-lysine, reference compound]","conversion to β-lysine by glutamate 2,3-aminomutase",[1]; substrate specificity,does not catalyze
"NC(CC(=O)O)CC(=O)O [β-Glutamate, β-glutamate]",rate of reaction to the other isomer,[1],2.3 μmoles min^−1· (mg protein)^−1
same,Specific Activity,"[1]; SAM +, Dithionite +, 37° C.",2.3 μmoles · min^−1 · mg^−1 Protein
same,Keq,"[2]; [β-Glutamate] start 0.6 mM, [Enzyme] 0.30 μM (subunit)",15.6
same,Keq,"[2]; [β-Glutamate] start 0.6 mM, [Enzyme] 1.5 μM (subunit)",15.3
same,Keq,"[2]; [β-Glutamate] start 1.4 mM, [Enzyme] 0.30 μM (subunit)",15.6
same,Keq,"[2]; [β-Glutamate] start 1.4 mM, [Enzyme] 1.5 μM (subunit)",15.8
same,Keq,"[2]; [β-Glutamate] start 3.1 mM, [Enzyme] 0.30 μM (subunit)",16.2
same,Keq,"[2]; [β-Glutamate] start 3.1 mM, [Enzyme] 1.5 μM (subunit)",16.3
same,Keq,"[2]; [β-Glutamate] start 6.2 mM, [Enzyme] 0.30 μM (subunit)",15.7
same,Keq,"[2]; [β-Glutamate] start 6.2 mM, [Enzyme] 1.5 μM (subunit)",16.4
same,Keq,"[2]; [β-Glutamate] start 12.3 mM, [Enzyme] 0.30 μM (subunit)",16.6
same,Keq,"[2]; [β-Glutamate] start 12.3 mM, [Enzyme] 1.5 μM (subunit)",16.4
same,Keq,"[2]; [β-Glutamate] start 22.9 mM, [Enzyme] 1.5 μM (subunit)",15.9
same,Keq,"[2]; [β-Glutamate] start 24.3 mM, [Enzyme] 0.30 μM (subunit)",16.1
same,equilibrium ratio of β-Glu to L-glutamate,[2]; same end point from either substrate,approximately 16
"O=S([O-])S(=O)[O-].[Na+].[Na+] [dithionite, sodium dithionite, reference compound]",effect of excess on enzyme activity,"[1]; excess, progressive loss of activity over time at >70 μM (FIG. 3)",inhibitory
"N[C@@H](CCC(=O)O)C(=O)O [L-Glutamate, L-glutamate]",rate of reaction to the other isomer,[1],5.9 μmoles min^−1· (mg protein)^−1
same,maximum velocity,"[1]; 37° C., forward direction",7 μmoles of β-glutamate min^−1· (mg protein)^−1
same,Vmax,"[1]; Assay 1, 37° C.",7.5 ± 0.18 μmoles · β-Glutamate min^−1 (mg protein)^−1
same,kcat,"[1]; Assay 1, 37° C.",6.2 s⁻¹
same,Km,"[1]; Assay 1, 37° C., read-out: Km (L-Glutamate)",2200 ± 160 µM
same,Vmax,"[1]; Assay 2, 37° C.",7.3 ± 0.19 μmoles · β-Glutamate min^−1 (mg protein)^−1
same,kcat,"[1]; Assay 2, 37° C.",6.0 s⁻¹
same,Km,"[1]; Assay 2, 37° C., read-out: Km (L-Glutamate)",2300 ± 180 µM
same,kcat,[1]; conditions of Table 3,6 s⁻¹
same,Km,"[1]; forward direction, conditions of Table 3, read-out: Michaelis constant (Km)",2000 µM
same,Specific Activity,"[1]; SAM +, Dithionite +, 37° C.",5.9 μmoles · min^−1 · mg^−1 Protein
same,Specific Activity,"[1]; SAM +, Dithionite −, 37° C.",0.16 μmoles · min^−1 · mg^−1 Protein
same,Specific Activity,"[1]; SAM −, Dithionite +, 37° C.",<0.01 μmoles · min^−1 · mg^−1 Protein
same,Keq,"[2]; [L-Glutamate] start 0.6 mM, [Enzyme] 1.5 μM (subunit)",14.2
same,Keq,"[2]; [L-Glutamate] start 0.8 mM, [Enzyme] 0.30 μM (subunit)",14.8
same,Keq,"[2]; [L-Glutamate] start 1.4 mM, [Enzyme] 1.5 μM (subunit)",15.2
same,Keq,"[2]; [L-Glutamate] start 1.6 mM, [Enzyme] 0.30 μM (subunit)",15.7
same,Keq,"[2]; [L-Glutamate] start 3.1 mM, [Enzyme] 1.5 μM (subunit)",16.0
same,Keq,"[2]; [L-Glutamate] start 3.2 mM, [Enzyme] 0.30 μM (subunit)",15.9
same,Keq,"[2]; [L-Glutamate] start 6.4 mM, [Enzyme] 0.30 μM (subunit)",15.9
same,Keq,"[2]; [L-Glutamate] start 6.6 mM, [Enzyme] 1.5 μM (subunit)",15.6
same,Keq,"[2]; [L-Glutamate] start 12.4 mM, [Enzyme] 1.5 μM (subunit)",15.6
same,Keq,"[2]; [L-Glutamate] start 12.9 mM, [Enzyme] 0.30 μM (subunit)",16.3
same,Keq,"[2]; [L-Glutamate] start 22.1 mM, [Enzyme] 0.30 μM (subunit)",15.5
same,Keq,"[2]; [L-Glutamate] start 22.9 mM, [Enzyme] 1.5 μM (subunit)",15.3

# — patent US7456271B2, “Glutamate 2,3-aminomutases and methods of use thereof” (Wisconsin Alumni Research Foundation, priority 2005, dated 2008)
